In the test the test system is 953936-095-R-J2-PDC spheroids with HUVEC/MSC, viability. In words: Anticancer human tumor 953936-095-R-J2-PDC patient-derived cervical squamous cell carcinoma cell line growth inhibition [PI3K]. The conditions noted are these: for viability, T/C: stronger effect = lower value. The source says: Combinatorial screen of targeted agents with the PI3K inhibitors inavolisib, alpelisib, duvelisib, and copanlisib in multi-cell type tumor spheroids
A high-throughput screen of multi-cell type tumor spheroids was designed to identify active combinations of targeted small molecules and PI3K pathway inhibitors. Complex spheroids include a stromal component modeled by human endothelial cells (HUVEC) and fibroblasts modeled by human mesenchymal stem cells (MSCs). The concentration ranges selected for each drug and investigational agent were based upon clinically achievable concentrations if the clinical Cmax of the agent was known.
Compounds. The drugs and investigational agents: inavolisib (NSC800729), alpelisib (NSC765974), duvelisib (NSC772469), copanlisib (NSC816437), ipatasertib (NSC767898), afuresertib (NSC778305), talazoparib (NSC767125), sapanisertib (NSC764658), selumetinib (NSC741078), tovorafenib (DAY101, NSC766906), vemurafenib (NSC761431), ravoxertinib (NSC781343), sotorasib (NSC818433), MRTX1133 (NSC 836407), abemaciclib (NSC 768073), palbociclib (NSC758247), venetoclax (NSC 766270), SY5609 (NSC837396), enzalutamide (NSC755605), and darolutamide (NSC825331), were obtained from the National Cancer Institute (NCI) Developmental Therapeutics Program Chemical Repository. The FDA-approved anticancer drug set is available from the NCI Developmental Therapeutics Program. […] The stock solutions were prepared in dimethyl sulfoxide (DMSO, Sigma-Aldrich, St. Louis, MO, cat. D2650) at 800-fold the tested concentration and stored at -70 degrees C prior to their use. All drugs and investigational agents were tested over a range starting from a high concentration at or near the clinical Cmax and decreasing in half-log increments. If the clinical Cmax for an agent had not been determined, the highest concentration tested was 10 microM.
Cell Culture. All cells were maintained in an incubator at 37 degrees C and 5% CO2 with 95% humidity. The PDC lines were cultured according to standard operating procedures established by the NCI PDMR (https://pdmr.cancer.gov/sops/default.htm). All PDCs were thawed and cultured in Matrigel-coated flasks prepared with a working solution of 1X Ham's F-12 nutrient mix, without supplementation (Invitrogen, Waltham, MA, cat. 11765054), 100 U/mL penicillin-streptomycin (Invitrogen, cat. 15140122), and 2.5% Matrigel (Corning Inc., Corning, NY, cat. 354248) for the first three passages. The 354836-022-R-J1-PDC, 475296-252-R-J1-PDC, and 997726-040-R-J2-PDC lines were cultured in 6A media, which includes advanced DMEM/F-12 (Thermo Fisher Scientific, cat. 12634028), 10 mM HEPES (Thermo Fisher Scientific, cat. 15630080), 1X GlutaMAX supplement (Thermo Fisher Scientific, cat. 35050061), 0.1 mg/mL primocin (InvivoGen, San Diego, CA, cat. ant-pm-2), 10% defined fetal bovine serum, heat inactivated (HyClone Laboratories Inc., Logan, UT, cat. SH30070.03HI), 50% L-WRN conditioned media (ATCC, cat. CRL-3276), 1.25 mM N-Acetyl-L-cysteine (Sigma-Aldrich, cat. A9165), 10 mM nicotinamide (Sigma-Aldrich, cat. N0636), 1X B-27 supplement (Thermo Fisher Scientific, cat. 17504044), 1X N-2 supplement (Thermo Fisher Scientific, cat. 17502048), and 10 microM Y-27632 dihydrochloride (Tocris Bioscience, Bristol, United Kingdom, cat. 1254). The 624824-186-R-J2-PDC line was cultured in 6C/Colon 1B media, which includes all 6A media components plus 50 ng/mL human EGF recombinant protein (Thermo Fisher Scientific, cat. PHG0311). […]

Molecules are shown by their SMILES. pIC50: −log10 of the molar value. Values joined by “and” are separate entries in the source; they are usually repeats but may differ in a detail not shown here. Equal entries are not always repeated.
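Note: spheroids exposed to compounds for seven days before read-out.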

Turning to `C#Cc1c(F)ccc2cc(O)cc(-c3ncc4c(N5CC6CCC(C5)N6)nc(OCC56CCCN5CC(F)C6)nc4c3F)c12` (stereo unspecified), the viability, T/C reads like this: (compound 0.0316 µM) 115% [middle of 4 runs]; (compound 0.1 µM) 97.5% [middle of 4 runs]; (compound 0.316 µM) 101% [middle of 4 runs]; (compound 1 µM) 92.4% [middle of 4 runs]; (compound 3.16 µM) 85.2% [middle of 4 runs]; (compound 10 µM) 81% [middle of 4 runs]. Moreover, the pIC50 (curve of compound) is under 5.00.
For the molecule `C=CC(=O)N1CCN(c2nc(=O)n(-c3c(C)ccnc3C(C)C)c3nc(-c4c(O)cccc4F)c(F)cc23)C(C)C1` (stereo unspecified), the viability, T/C (compound 0.0316 µM) was 93.6% [middle of 4 runs]; the viability, T/C (compound 0.1 µM) is 100% (2×) and 105% and 96.7%; the viability, T/C (compound 0.316 µM) was 108% [middle of 4 runs]; the viability, T/C (compound 1 µM) was 121% [middle of 4 runs]; the viability, T/C (compound 10 µM) was 118% (2×) and 112% and 127%. Besides, the pIC50 (curve of compound) is under 5.00.
For the molecule `CC(Cn1ccc(-c2ccc(C#N)c(Cl)c2)n1)NC(=O)c1cc(C(C)O)[nH]n1` (stereo unspecified), the viability, T/C is 91.2% [middle of 4 runs] (compound 0.0316 µM); 96.5% [middle of 4 runs] (compound 0.1 µM); 97.1% [middle of 4 runs] (compound 0.316 µM); 108% and 101% (2×) and 96.8% (compound 1 µM); 99.4% (2×) and 105% and 106% (compound 10 µM). Under “curve of compound”, the pIC50 was under 5.00.
In the case of `CC1(C)CCC(Nc2ncc(C(F)(F)F)c(-c3c[nH]c4c(P(C)(C)=O)c(C#N)ccc34)n2)CN1` (stereo unspecified), the viability, T/C runs as follows: (compound 0.0316 µM) 51.7% [middle of 4 runs]; (compound 0.1 µM) 51.8% [middle of 4 runs]; (compound 0.316 µM) 53.5% [middle of 4 runs]; (compound 1 µM) 53.4% [middle of 4 runs]; (compound 3.16 µM) 55% and 54.4% (2×) and 52.7%; (compound 10 µM) 7.36% [middle of 4 runs].
For `Cn1ncc(Cl)c1-c1cc(C(=O)NC(CN)Cc2cccc(F)c2)sc1Cl` (stereo unspecified), the viability, T/C is, setting by setting: (compound 0.0316 µM) 93.5% [middle of 4 runs]; (compound 0.1 µM) 82.7% [middle of 4 runs]; (compound 0.316 µM) 64.7% [middle of 4 runs]; (compound 1 µM) 37.6% and 37.7% (2×) and 35.5%; (compound 3.16 µM) 21.1% [middle of 4 runs]; (compound 10 µM) 13.2% and 12.6% (2×) and 13.7%. For the setting “curve of compound”, the IC50 was 597 nM [middle of 4 runs].
On to `Cn1nccc1Nc1nccc(-c2ccn(C(CO)c3ccc(Cl)c(F)c3)c(=O)c2)n1` (stereo unspecified), for which the viability, T/C runs as follows: (compound 0.0316 µM) 90.7% [middle of 4 runs]; (compound 0.1 µM) 97.3% [middle of 4 runs]; (compound 0.316 µM) 91.1% [middle of 4 runs]; (compound 1 µM) 90% [middle of 4 runs]; (compound 3.16 µM) 82.7% [middle of 4 runs]; (compound 10 µM) 77.9% [middle of 4 runs]. The pIC50 (curve of compound) is under 5.00.
For `Cn1cnc2c(F)c(Nc3ccc(Br)cc3Cl)c(C(=O)NOCCO)cc21` + CC(Nc1ccc2c(c1)OCCn1cc(N3C(=O)OCC3C(F)F)nc1-2)C(N)=O, the pIC50 by setting is: (curve of first compound, second compound 0.00316 µM) 6.31; (curve of first compound, second compound 0.01 µM) 6.55; (curve of first compound, second compound 0.0316 µM) 7.05; (curve of first compound, second compound 0.1 µM) over 8.02; (curve of first compound, second compound 0.316 µM) over 8.02; (curve of first compound, second compound 1 µM) over 8.02. The viability, T/C runs as follows: (second compound 0.00316 µM, first compound 0.00949 µM) 88.3%; (second compound 0.00316 µM, first compound 0.03 µM) 81.4%; (second compound 0.00316 µM, first compound 0.0949 µM) 66%; (second compound 0.00316 µM, first compound 0.3 µM) 55.7%; (second compound 0.00316 µM, first compound 0.949 µM) 43.7%; (second compound 0.00316 µM, first compound 3 µM) 30.2%. In addition, the viability, T/C is, setting by setting: (second compound 0.01 µM, first compound 0.00949 µM) 75.6%; (second compound 0.01 µM, first compound 0.03 µM) 68.5%; (second compound 0.01 µM, first compound 0.0949 µM) 60%; (second compound 0.01 µM, first compound 0.3 µM) 51.5%; (second compound 0.01 µM, first compound 0.949 µM) 35%; (second compound 0.01 µM, first compound 3 µM) 26.3%. Moreover, the viability, T/C is 67.9% (second compound 0.0316 µM, first compound 0.00949 µM); 56.6% (second compound 0.0316 µM, first compound 0.03 µM); 49.7% (second compound 0.0316 µM, first compound 0.0949 µM); 42.5% (second compound 0.0316 µM, first compound 0.3 µM); 29.7% (second compound 0.0316 µM, first compound 0.949 µM); 20.6% (second compound 0.0316 µM, first compound 3 µM). Further, the viability, T/C is 46% (second compound 0.1 µM, first compound 0.00949 µM); 41.2% (second compound 0.1 µM, first compound 0.03 µM); 38.7% (second compound 0.1 µM, first compound 0.0949 µM); 23.9% (second compound 0.1 µM, first compound 0.3 µM); 16.1% (second compound 0.1 µM, first compound 0.949 µM); 7.95% (second compound 0.1 µM, first compound 3 µM). For the same molecule, the viability, T/C reads like this: (second compound 0.316 µM, first compound 0.00949 µM) 28.1%; (second compound 0.316 µM, first compound 0.03 µM) 23%; (second compound 0.316 µM, first compound 0.0949 µM) 16.6%; (second compound 0.316 µM, first compound 0.3 µM) 11.6%; (second compound 0.316 µM, first compound 0.949 µM) 6.22%; (second compound 0.316 µM, first compound 3 µM) 3.26%. Further, the viability, T/C is, setting by setting: (second compound 1 µM, first compound 0.00949 µM) 18.6%; (second compound 1 µM, first compound 0.03 µM) 14.5%; (second compound 1 µM, first compound 0.0949 µM) 10.3%; (second compound 1 µM, first compound 0.3 µM) 8.09%; (second compound 1 µM, first compound 0.949 µM) 4.74%; (second compound 1 µM, first compound 3 µM) 1.5%.

Values taken from PubChem BioAssay AID1963971 (Molecular Pharmacology Branch, DTP, NCI, 2024).
